Columns and labels:
[1] = Traditional forced degradation in bulk solution, oxidative (H2O2), nanospray MS; format: physicochemical; conditions: 45 μg/mL, 0.3% H2O2, 90% methanol-10% H2O
Source text: (§1) Particularly, the degradation of three APIs in Leidenfrost droplets is exemplified, under conditions of constant volume achieved by adding make-up solvent automatically via a syringe pump during the levitation period. The data were compared with the degradation of the corresponding bulk material under similar conditions of solvent and temperature. In both droplet and bulk, degradation products are monitored by mass spectrometry and the ratio of products to reactants was used to infer the extent of reaction (Table 1).
(§2) Traditional forced degradation was performed by preparing a stock stress solution of hydrochloric acid or hydrogen peroxide, and a stock solution of the compound of interest (the API). Then the solutions were mixed and allowed to react at a set temperature for a set period of time (FIG. 1A). The composition of the final reaction mixture was analyzed by nanospray MS and the data for the bulk phase experiments are given in Table 1. Likewise, the Leidenfrost reaction mixture was made by the same method, then instead of letting the mixed solution age at a set temperature, it was dropped into a ceramic well which was placed on hot plate held at a temperature of 540° C. to form a much cooler Leidenfrost droplet (FIG. 1B). […] Here, both bulk and Leidenfrost products are analyzed by using nanospray MS.

[2] = Accelerated forced degradation in Leidenfrost droplets, oxidative (H2O2), nanospray MS; format: physicochemical; conditions: 0.3% H2O2, 90% methanol-10% H2O
Source text: as §1, §2

[3] = Accelerated forced degradation in Leidenfrost droplets, acid (HCl), nanospray MS; format: physicochemical; conditions: 0.5M HCl, 90% propanol-10% H2O, without make-up solvent
Procedure: The data were compared with the degradation of the corresponding bulk material under similar conditions of solvent and temperature. In both droplet and bulk, degradation products are monitored by mass spectrometry and the ratio of products to reactants was used to infer the extent of reaction (Table 1).
as §2

[4] = Traditional forced degradation in bulk solution, acid (HCl), nanospray MS; conditions: 450 μg/mL
Source text: as §1, §2

For CN1CCN(CCCN2c3ccccc3Sc3ccc(C(F)(F)F)cc32)CC1 [Trifluoperazine (TFP), Trifluoperazine], the “Set Ratio (products to reactants, extent of degradation)” value ([1]; 40° C., reached after 1.5 h in bulk, 180 s in Leidenfrost droplet) was 3%, the “Bulk Time” value ([1]; bulk 40° C., time to reach Set Ratio 3%) was 1.5 h^ and the “Leidenfrost Time” value ([2]; 45 μg/mL, Leidenfrost droplet 40° C., constant volume, time to reach Set Ratio 3%) was 180 s. The “Accel. Factor” value ([2]; Leidenfrost droplet vs bulk, 40° C.) was about 20.

For NS(=O)(=O)c1cc2c(cc1Cl)NCNS2(=O)=O [Hydrochlorothiazide (HCTZ), Hydrochlorothiazide], the “Leidenfrost Time” value ([3]; 450 μg/mL, Leidenfrost droplet 80° C., time to reach Set Ratio 2.5%) was 40 s, the “Accel. Factor” value ([3]; Leidenfrost droplet vs bulk, 80° C.) was about 270 and the “Bulk Time” value ([4]; 0.5M HCl, 90% propanol-10% H2O, bulk 80° C., time to reach Set Ratio 2.5%) was 3 h. The “Set Ratio (products to reactants, extent of degradation)” value ([4]; 3 h) was 2.5%^.

Reference: patent publication US11209411B2, “Methods for analyzing stability of an active pharmaceutical ingredient” (Purdue Research Foundation, priority 2018, dated 2021)
